Laboratory results from ChEMBL document CHEMBL1156236, “Trypanoside, anti-tuberculosis, leishmanicidal, and cytotoxic activities of tetrahydrobenzothienopyrimidines” (Bioorg Med Chem, 2010).
≈ marks a conversion by molar mass, not a printed value.

Columns and labels:
[1] = system: PC-3; test: Cytotoxicity against human PC3 cells; format: functional
[2] = system: HT-29; test: Cytotoxicity against human HT-29 cells; format: functional
[3] = system: A498; test: Cytotoxicity against human A498 cells; format: functional
[4] = system: UACC-257; test: Cytotoxicity against human UACC257 cells; format: functional
[5] = system: CCRF-CEM; test: Cytotoxicity against human CCRF-CEM cells; format: functional
[6] = system: Vero; test: Cytotoxicity against african green monkey Vero cells after 72 hrs by MTS assay; conditions: Chlorocebus sabaeus, Vero, 72 h
[7] = system: NCI-H226; test: Cytotoxicity against human NCI-H226 cells; format: functional
[8] = system: Mycobacterium tuberculosis; test: Antitubercular activity against Mycobacterium tuberculosis H37Rv ATCC 27294 after 7 days by microplate alamar blue assay; format: functional; conditions: H37Rv ATCC 27294, 168 h
[9] = system: SW-620; test: Cytotoxicity against human SW620 cells; format: functional
[10] = system: MOLT-4; test: Cytotoxicity against human MOLT4 cells; format: functional
[11] = system: NCI-H460; test: Cytotoxicity against human NCI-H460 cells; format: functional
[12] = system: 786-0; test: Cytotoxicity against human 786-0 cells; format: functional
[13] = system: OVCAR-8; test: Cytotoxicity against human OVCAR8 cells; format: functional
[14] = Cytotoxicity against BALB/c mouse macrophages after 48 hrs by trypan blue dye exclusion method; format: cell-based; conditions: Macrophage
[15] = system: SK-MEL-2; test: Cytotoxicity against human SK-MEL-2 cells; format: functional
[16] = system: OVCAR-5; test: Cytotoxicity against human OVCAR5 cells; format: functional
[17] = system: SNB-19; test: Cytotoxicity against human SNB19 cells; format: functional
[18] = system: Leishmania amazonensis; test: Antileishmanial activity against Leishmania amazonensis Lma CL1 amastigotes infected BALB/c mouse macrophages after 48 hrs by Giemsa staining method; format: functional, organism-based; conditions: Lma CL1, 48 h
[19] = system: CAKI-1; test: Cytotoxicity against human Caki1 cells; format: functional
[20] = system: COLO 205; test: Cytotoxicity against human COLO205 cells; format: functional
[21] = system: A549; test: Cytotoxicity against human A549 cells; format: functional
[22] = system: ACHN; test: Cytotoxicity against human ACHN cells; format: functional
[23] = system: MDA-MB-468; test: Cytotoxicity against human MDA-MB-468 cells; format: functional
[24] = system: HCC 2998; test: Cytotoxicity against human HCC2998 cells; format: functional
[25] = system: UACC-62; test: Cytotoxicity against human UACC62 cells; format: functional
[26] = system: SK-MEL-28; test: Cytotoxicity against human SK-MEL-28 cells; format: functional
[27] = system: U-251; test: Cytotoxicity against human U251 cells; format: functional
[28] = system: SK-MEL-5; test: Cytotoxicity against human SK-MEL-5 cells; format: functional
[29] = system: NCI-H522; test: Cytotoxicity against human NCI-H522 cells; format: functional
[30] = system: LOX IMVI; test: Cytotoxicity against human LOXIMVI cells; format: functional
[31] = system: SN12C; test: Cytotoxicity against human SN12C cells; format: functional
[32] = system: SK-OV-3; test: Cytotoxicity against human SKOV3 cells; format: functional
[33] = system: IGROV-1; test: Cytotoxicity against human IGROV1 cells; format: functional
[34] = system: Leishmania peruviana; test: Antileishmanial activity against Leishmania peruviana MHOM/PE/LCA08 promastigote infected BALB/c mouse macrophages after 48 hrs by Giemsa staining method; format: functional, organism-based; conditions: MHOM/PE/LCA08, 48 h
[35] = system: HOP-92; test: Cytotoxicity against human HOP92 cells; format: functional
[36] = system: SF-268; test: Cytotoxicity against human SF268 cells; format: functional
[37] = system: NCI-H23; test: Cytotoxicity against human NCI-H23 cells; format: functional
[38] = Selectivity index, ratio of IC50 for BALB/c mouse macrophages to IC50 for Leishmania amazonensis MHOM/BR/76/LTB-012
[39] = system: SF-539; test: Cytotoxicity against human SF539 cells; format: functional
[40] = system: HOP-62; test: Cytotoxicity against human HOP62 cells; format: functional
[41] = Selectivity index, ratio of IC50 for african green monkey Vero cells to MIC for Mycobacterium tuberculosis H37Rv ATCC 27294 by microplate alamar blue assay; format: functional
[42] = system: UO-31; test: Cytotoxicity against human UO31 cells; format: functional; conditions: read-out: LC50 (the source's name)
[43] = system: KM12; test: Cytotoxicity against human KM12 cells; format: functional
[44] = system: M14; test: Cytotoxicity against human M14 cells; format: functional
[45] = system: DU-145; test: Cytotoxicity against human DU145 cells; format: functional
[46] = read-out: LC50 (the source's name)

C(=N\Nc1ncnc2sc3c(c12)CCCC3)/c1ccccn1
GI50 [1]: 0.431 µM
TGI [1]: 71.1 µM
CC50 [1, 46]: > 100 µM
GI50 [2]: 0.1 µM
LC50 (lethal concentration, 50% cell kill) [2]: 44.9 µM
TGI [2]: 15.1 µM
GI50 [3]: 0.428 µM
TGI [3]: 8.81 µM
CC50 [3, 46]: 37.2 µM
GI50 [4]: 0.355 µM
CC50 [4, 46]: 41.7 µM
GI50 [5]: 0.242 µM
TGI [5]: 0.769 µM
CC50 [5, 46]: > 100 µM
IC50 [6]: < 0.3 µM
GI50 [7]: 0.385 µM
TGI [7]: 16.2 µM
CC50 [7, 46]: > 100 µM
MIC [8]: 145 µM (≈ 44.9 µg/mL)
GI50 [9]: 0.561 µM
TGI [9]: 17.9 µM
CC50 [9, 46]: 59.5 µM
GI50 [10]: 0.261 µM
TGI [10]: 0.774 µM
CC50 [10, 46]: > 100 µM
GI50 [11]: 0.4 µM
TGI [11]: 1.73 µM
CC50 [11, 46]: 31.1 µM
GI50 [12]: 0.333 µM
TGI [12]: 0.947 µM
CC50 [12, 46]: 44.4 µM
GI50 [13]: 0.481 µM
TGI [13]: > 1 µM
CC50 [13, 46]: > 0.1 µM
IC50 [14]: 6.5 µM
GI50 [15]: 7.51 µM
TGI [15]: 25.5 µM
CC50 [15, 46]: 67.8 µM
GI50 [16]: 0.823 µM
TGI [16]: 31.4 µM
CC50 [16, 46]: > 0.1 µM
GI50 [17]: 0.767 µM
TGI [17]: 34.1 µM
CC50 [17, 46]: > 100 µM
IC50 [18]: > 2 µM
GI50 [19]: 0.313 µM
TGI [19]: 14.8 µM
CC50 [19, 46]: > 100 µM
GI50 [20]: 0.315 µM
TGI [20]: 14.7 µM
CC50 [20, 46]: 54.5 µM
GI50 [21]: 0.389 µM
TGI [21]: 14.9 µM
CC50 [21, 46]: 70 µM
GI50 [22]: 0.313 µM
TGI [22]: 11 µM
CC50 [22, 46]: > 100 µM
GI50 [23]: 0.2 µM
TGI [23]: 0.505 µM
CC50 [23, 46]: 41 µM
GI50 [24]: 10 µM
TGI [24]: 22.9 µM
CC50 [24, 46]: 52.6 µM
GI50 [25]: 0.379 µM
TGI [25]: 6.54 µM
CC50 [25, 46]: 48.4 µM
GI50 [26]: 0.422 µM
TGI [26]: 16.7 µM
CC50 [26, 46]: 54.6 µM
GI50 [27]: 0.369 µM
TGI [27]: 12.1 µM
CC50 [27, 46]: 34.8 µM
GI50 [28]: 0.332 µM
TGI [28]: 1.72 µM
CC50 [28, 46]: 23.6 µM
GI50 [29]: 0.419 µM
TGI [29]: 23.2 µM
CC50 [29, 46]: > 100 µM
GI50 [30]: 0.256 µM
CC50 [30, 46]: 34.8 µM
GI50 [31]: 0.426 µM
TGI [31]: 15.3 µM
CC50 [31, 46]: 81 µM
GI50 [32]: 0.41 µM
TGI [32]: 29.2 µM
CC50 [32, 46]: > 0.1 µM
GI50 [33]: 0.45 µM
TGI [33]: 28.9 µM
CC50 [33, 46]: > 100 µM
IC50 [34]: 0.7 µM
GI50 [35]: 0.417 µM
TGI [35]: 31 µM
CC50 [35, 46]: > 100 µM
GI50 [36]: 0.356 µM
TGI [36]: 15.1 µM
CC50 [36, 46]: 83 µM
GI50 [37]: 0.705 µM
TGI [37]: 34.3 µM
CC50 [37, 46]: > 100 µM
Ratio IC50 [38]: 13
GI50 [39]: 0.391 µM
TGI [39]: 0.384 µM
CC50 [39, 46]: 29.2 µM
GI50 [40]: 0.395 µM
TGI [40]: 17.7 µM
CC50 [40, 46]: > 100 µM
Ratio IC50 [41]: 0.2
CC50 [42]: 63 µM
GI50 [43]: 0.515 µM
TGI [43]: 12.7 µM
CC50 [43, 46]: 38 µM
GI50 [44]: 0.25 µM
TGI [44]: 0.599 µM
CC50 [44, 46]: 33.4 µM
GI50 [45]: 0.37 µM
LC50 [45]: 51.6 µM
TGI [45]: 15.1 µM
